Test results as given in patent US7119062B1, “Methods and compositions for improved articular surgery using collagen” (Neucoll, Inc., priority 2001, dated 2006).
Read-outs that look alike come from different tables or passages of the source.

Key:
[1] = cited from earlier work
[2] = adults; cited from earlier work
[3] = cited from earlier work; remark: listed apart in the source
research monkeys = conditions: cited from earlier work
mice = conditions: cited from earlier work
[4] = standard mutagenicity and clastogenicity assays; cited from earlier work
[5] = Anesthetic effect of lidocaine in intra-articular collagen injections; assay type: in vivo; conditions: 1 mL intra-articular injections of collagen formulation with 0.3% lidocaine
[6] = in vivo

CCCCN1CCCCC1C(=O)Nc1c(C)cccc1C (stereo not shown) [bupivacaine]
change in VAS pain scores at 1 hour ([1]; 12.5 mg intra-articular, knees of osteoarthritis patients, 1 hour post-administration): statistically significant (p=0.007) fall | effect on VAS pain scores after 1 hour ([1]; 12.5 mg intra-articular, knees of osteoarthritis patients, after 1 hour): no significant effects | duration of analgesia ([1]; intra-articular injection): 2 to 12 h | intra-articular dose that produces analgesia of the joint ([1]; intra-articular): approximately 10 mg | duration of pain relief ([1]; local anesthetic injected into the operated joint at the end of arthroscopy): about 6 hours | half life [2]: approximately 3.5 hours | maximum dose ([3]; over a 24 hour period): 400 mg | therapeutic apparently safe dose ([3]; single bolus): approximately 225 mg | single dose that produced seizures (research monkeys): 4.4 mg/kg | LD50 (mice; intravenous): 6 to 8 mg/kg | LD50 (mice; subcutaneous): 38 to 54 mg/kg

CCCCN1CCCC[C@H]1C(=O)Nc1c(C)cccc1C [levobupivacaine]
genotoxicity [4]: non-genotoxic

CCN(CC)CC(=O)Nc1c(C)cccc1C [lidocaine]
duration of anesthetic effects of lidocaine [5]: less than an hour | duration of anesthetic effects of lidocaine, in most cases ([5]; in most cases): less than 10 minutes | dosage required to achieve the same clinical efficacy as bupivacaine ([1]; equivalent indications, relative to bupivacaine): 2 to 10 times

collagen
time collagen remains in the knee joints [6]: up to 8 weeks
